In ChEMBL document CHEMBL3886901, “Substituted azoles, antiviral active component, pharmaceutical composition, method for preparation and use thereof” (2016):

Test: Immumoenzymatic Assay: Solutions of the tested compounds in DMEM medium {DMEM) 1x; Source: Cellgro; Catalogue: 10-013-CV} were prepared immediately before use. Eleven serial three fold dilutions with variation of concentrations from 20 nM to 0.2 pM were prepared. In 4 hours after seeding, serial dilutions of the compounds were added to the cells (100 ul to each well). Final concentration of tested compounds was varied from 10 nM to 0.1 pM, and DMSO4 0.5%. If it was necessary, higher concentrations of the disclosed azoles were investigated. Each dilution of the compound was tested on two identical wells. Then the cells were incubated for three days at 37° C./5% CO2 and fixed by addition of acetone/methanol (1:1) mixture in amount of 250 ul/well. In 1 min the cells were washed 3 times with PBS (Phosphate Buffered Saline) solution. Then the cells were blocked by addition of 10% fetal calf serum in PBS solution in amount of 150 ul/well for 1 h at room temperature. Then, the cells were incubated with mouse monoclonal antibodies to cor-antigen HCV, don C7-50 (Source: Affinity BioReagents; Catalogue: MA1-080) (100 ul/well, working dilution 1:500 in 10% fetal calf serum in PBS solution) for 2 h at 37° C. The cells were washed 6 times with PBS/0.05% Tween 20 solution, then, they were incubated for 1 h with goat anti-mouse immunoglobulin antibodies (conjugated with horseradish peroxidase, 100 ul/well, working dilution 1:2500 in 10% fetal calf serum in PBS solution). The cells were washed 6 times with PBS/0.05% Tween 20 solution, once with PBS solution, after that substrate (1 tablet of o-phenylenediamine (oPD)+12 ml citrate/phosphate buffer+5 ul 30% H2O2) in amount of 100 ul/well was added. The plates were kept for 30 min in the dark at room temperature. The reaction was arrested by the addition of 2N H2SO4 in amount of 100 ul/well, and optical density (wavelength 490 nm) was measured by means of multiscan plate reader Victor3 V 1420 (Perkin Elmer). IC50 values (azole concentration, lowering the level of virus RNA-replicon on 50%) for every tested azole were calculated with the help of XLfit 4 program.
Type: cell-based
Details: not given

**Q.** For `COC(=O)N[C@H](C(=O)N1CCC[C@H]1c1nc(C#CC#Cc2ccc(-c3c[nH]c([C@@H]4CCCN4C(=O)[C@@H](NC(=O)OC)C(C)C)n3)cc2)c[nH]1)C(C)C`, which IC50 is on record?
**A.** Its IC50 is 4 pM.

Same assay, conditions: 4 h

**Q.** For `COC(=O)N[C@H](C(=O)N1CCC[C@H]1c1nc(C#CC#Cc2ccc3cc(-c4c[nH]c([C@@H]5CCCN5C(=O)[C@@H](NC(=O)OC)C(C)C)n4)ccc3c2)c[nH]1)C(C)C`, which IC50 is on record?
**A.** Its IC50 is 3.6 pM.

**Q.** With `COC(=O)N[C@@H](C(=O)N1CCC[C@@H]1c1ncc(C#CC#Cc2ccc3cc(-c4cnc([C@H]5CCCN5C(=O)[C@H](NC(=O)OC)C(C)C)[nH]4)ccc3c2)[nH]1)C(C)C` as the compound, how does the IC50 read?
**A.** Its IC50 is 4.6 pM.

**Q.** With `COC(=O)N[C@H](C(=O)N1CCC[C@H]1c1nc(-c2ccc(C#CC#Cc3c[nH]c([C@H]4CCCN4C(=O)[C@H](NC(=O)OC)C(C)C)n3)cc2)c[nH]1)c1ccccc1` as the compound, how does the IC50 read?
**A.** Its IC50 is 1.8 pM.

**Q.** With `COC(=O)N[C@@H](C(=O)N1CCC[C@H]1c1nc(-c2ccc(C#CC#Cc3c[nH]c([C@H]4CCCN4C(=O)[C@H](NC(=O)OC)C(C)C)n3)cc2)c[nH]1)c1ccccc1` as the compound, how does the IC50 read?
**A.** Its IC50 is 8.2 pM.

**Q.** Which IC50 does the source give for `COC(=O)N[C@H](C(=O)N1CCC[C@@H]1c1nc(C#CC#Cc2ccc(-c3c[nH]c([C@@H]4CCCN4C(=O)[C@@H](NC(=O)OC)C(C)C)n3)cc2)c[nH]1)c1ccccc1` here?
**A.** The IC50 was 5.4 pM.
